US10130618B2, “Pharmaceutical combinations of dabigatran and proton pump inhibitors” (SANOVEL ILAC SANAYI VE TICARET ANONIM SIRKETI, priority 2014, dated 2018)

Columns and labels:
[1] = DSC analysis of 1:1 API mixtures (compatibility with Dabigatran etexilate mesylate); assay type: physicochemical; conditions: for DSC peak temperature of the mixture (peak shifting) / Compatibility by DSC: 1:1 mixture with Dabigatran etexilate mesylate; for DSC peak temperature of the mixture (peak shifting): 10° C./min, 30° C. to 300° C.; for Compatibility by DSC: characteristic peaks not determined; for Pharmaceutical incompatibility (discussion of DSC): with Dabigatran etexilate mesylate
Experimental: (§1) DSC Analysis: DSC scan of about 2 mg using an automatic thermal analyzer system performed accurately weighed of APIs (Dabigatran etexilate, Dabigatran etexilate mesylate, Esomeprazole, Dexlansoprazole) of 1:1 in ratio respectively. DSC scans performed with 10° C. per minute heat flow from 30° C. to 300° C. The peak shifting of active ingredients was determined by DSC analysis.
(§2) Method Log: • 1: Pan Type: Aluminum hermetic • 2: Equilibrate at 30.00° C. • 3: Ramp 10.00 ° C./min to 300.00° C. • 4: End of method
(§3) Results (Thermograms): • FIG. 1. Thermogram of Dabigatran etexilate • FIG. 2. Thermogram of Dabigatran etexilate mesylate • FIG. 3. Thermogram of Esomeprazole • FIG. 4. Thermogram of Dexlansoprazole • FIG. 5. Thermogram of Dabigatran etexilate: Esomeprazole • FIG. 6. Thermogram of Dabigatran etexilate mesylate: Esomeprazole • FIG. 7. Thermogram of Dabigatran etexilate: Dexlansoprazole • FIG. 8. Thermogram of Dabigatran etexilate mesylate: Dexlansoprazole
(§4) Discussion: The characteristic degradation and melting peaks of active ingredients were not determined. It indicates pharmaceutical incompatibility of esomeprazole and dexlansoprazole with Dabigatran etexilate and Dabigatran etexilate mesylate.

[2] = DSC analysis of 1:1 API mixtures (compatibility with Dabigatran etexilate); assay type: physicochemical; conditions: for DSC peak temperature of the mixture (peak shifting) / Compatibility by DSC: 1:1 mixture with Dabigatran etexilate; for DSC peak temperature of the mixture (peak shifting): 10° C./min, 30° C. to 300° C.; for Compatibility by DSC: characteristic peaks not determined; for Pharmaceutical incompatibility (discussion of DSC): with Dabigatran etexilate
Experimental: as §1, §2, §3, §4

| Compound | DSC peak temperature of the mixture (peak shifting) [1] | Compatibility by DSC [1] | Pharmaceutical incompatibility (discussion of DSC) [1] | DSC peak temperature of the mixture (peak shifting) [2] | Compatibility by DSC [2] | Pharmaceutical incompatibility (discussion of DSC) [2] |
| --- | --- | --- | --- | --- | --- | --- |
| Cc1c(OCC(F)(F)F)ccnc1C[S@@+]([O-])c1nc2ccccc2[nH]1 [Dexlansoprazole, (+)-2-[(R)-{[3-methyl-4-(2,2,2-trifluoroethoxy)pyridin-2-yl]methyl}sulfinyl]-1H-benzimidazole] | 82 °C | incompatible. | incompatibility | 87 °C | incompatible. | incompatibility |
| COc1ccc2nc([S@@+]([O-])Cc3ncc(C)c(OC)c3C)[nH]c2c1 [Esomeprazole, (S)-5-methoxy-2-[(4-methoxy-3,5-dimethylpyridin-2-yl)methylsulfinyl]-3H-benzoimidazole] | 176 °C | incompatible. | incompatibility | 174 °C | incompatible. | incompatibility |
